Among the data in US4085114A, “1,2-Benzoisoxazole derivatives and the production thereof” (Shionogi & Co., Ltd., priority 1975, dated 1978) are IC50 and LD50 values, retold here.

One series deals with isolated atria. Kind of series: β-Blocking activities in the isolated atria (inhibition of positive inotropic effect of isoproterenol). The series is classed as cell-based, Guinea-pigs. Particulars: Cavia porcellus, read-out: fifty percent inhibitory concentration on the positive inotropic effect of isoproterenol (IC50), 1. Atria. The protocol: (§1) Guinea-pigs of either sex, weighing between 400 - 700 g each, were killed by a sharp blow on the head. Their atria and trachea were quickly excised and freed of excess tissues.
1. β-Blocking activities in the isolated atria:
The isolated atria were mounted in a 30 ml organ bath filled with Krebs-Ringer-bicarbonate solution, which was constantly bubbled with a gas mixture of 95% oxygen and 5% carbon dioxide at 30° C. Spontaneous contractions of the atria were isometrically recorded on the polygraph (RM-150, Nihon Kohden Kogyo) by mean of a F-D pick-up (N. K. K.) and the number of contractions in one minute was recorded on the home-made pulse counter triggered by the atrial contractions.

A short description of another series: in vivo. Particulars: mouse, iv, female DS mice.
The next series concerns isolated trachea. The experiment in a line: β-Blocking activities in the isolated trachea (inhibition of isoproterenol-induced relaxation of tracheal chain). Format: cell-based, Guinea-pigs. Particulars: Cavia porcellus, read-out: fifty percent inhibitory concentration on the relaxation of tracheal chain by isoproterenol (IC50), 2. Trachea.
Description: as §1

In brackets after ≈: the same amount, converted by molar mass.

By LD50 is commonly meant the dose expected to kill half of the subjects tested. A high value points to a less toxic substance. Consider `Cc1noc2cccc(OCC(O)CNC(C)C)c12` (centres unmarked) [3-methyl-4-(2-hydroxy-3-isopropylaminopropoxy)-1,2-benzisoxazole], for which the IC50 in the series with isolated atria stood at 25 ng/mL (≈ 0.0946 µM). The LD50 in the series “in vivo” was 45 mg/kg.

Regarding `Cc1noc2cccc(OCC(O)CNC(C)(C)C)c12` (centres unmarked) [3-methyl-4-(2-hydroxy-3-tert-butylaminopropoxy)-1,2-benzisoxazole], the IC50 with isolated atria is 7.9 ng/mL (≈ 0.0284 µM); in the series with isolated trachea, 1.1 ng/mL (≈ 0.00395 µM). The same molecule displayed an LD50 in the series “in vivo” of 41.8 mg/kg.
